Consider 24 molecules from patent publication US10005774B2, “Syk inhibitors” (Gilead Sciences, Inc., priority 2013, dated 2018).

In one assay the target is Syk (Homo sapiens, UniProt P43405). As to the kind of experiment: High Throughput Syk Biochemical Assay (KinEASE TR-FRET). The note with it: TABLE D, 20 μM ATP, 1 μM biotinylated peptide, 0.015 nM Syk, 30 min at room temperature, read-out: IC50. In a few lines: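 Two-step endpoint TR-FRET (KinEASE) measured Syk phosphorylation of an XL665-labelled peptide, detected with europium anti-phosphotyrosine antibody. Compounds were serially diluted in DMSO.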
(Time-resolved FRET reads energy transfer from a long-lived donor to a nearby acceptor.)
By IC50 is commonly meant the midpoint of a concentration-inhibition curve. Take `C[C@@H](Oc1cc(-c2cc3c(cnn3C)s2)cc2ncsc12)[C@H]1CNC(=O)C1` [(R)-4-((R)-1-(5-(1-methyl-1H-thieno[3,2-c]pyrazol-5-yl)benzo[d]thiazol-7-yloxy)ethyl)pyrrolidin-2-one]: the IC50 amounted to 7.68 nM. Regarding `C[C@@H](Oc1nc(C2=CCCCC2)cc2ncn(C)c12)[C@H]1CNC(=O)C1` [(R)-4-((R)-1-(6-cyclohexenyl-3-methyl-3H-imidazo[4,5-c]pyridin-4-yloxy)ethyl)pyrrolidin-2-one], the IC50 turned out to be 124 nM.

As for `C[C@@H](Oc1nc(-c2ccc3scnc3c2)cc2ncn(C)c12)[C@H]1CNC(=O)C1` [(R)-4-((R)-1-((6-(benzo[d]thiazol-5-yl)-3-methyl-3H-imidazo[4,5-c]pyridin-4-yl)oxy)ethyl)pyrrolidin-2-one], the IC50 turned out to be 30.6 nM. With `C[C@@H](Oc1nc(-c2cccc(S(C)(=O)=O)c2)cc2ncn(C)c12)[C@H]1CNC(=O)C1` [(R)-4-((R)-1-(3-methyl-6-(3-(methylsulfonyl)phenyl)-3H-imidazo[4,5-c]pyridin-4-yloxy)ethyl)pyrrolidin-2-one], the IC50 came out at 42.5 nM. On the same count and under the same terms, the figure for `Cc1nc2cc(-c3cnn(C(C)(C)C)c3)cc(O[C@H](C)[C@H]3CNC(=O)C3)c2s1` (stereo in doubt) [(R)-4-((R)-1-((5-(1-(tert-butyl)-1H-pyrazol-4-yl)-2-methylbenzo[d]thiazol-7-yl)oxy)ethyl)pyrrolidin-2-one] is 22.2 nM. For the molecule `C[C@@H](Oc1cc(-c2ccc(N3CCOCC3)cn2)cc2ncsc12)[C@H]1CNC(=O)C1` (stereo in doubt) [(R)-4-((R)-1-((5-(5-morpholinopyridin-2-yl)benzo[d]thiazol-7-yl)oxy)ethyl)pyrrolidin-2-one], the IC50 stood at 1.88 nM. Turning to `C[C@@H](Oc1cc(-c2ccc(N3CCN(C(=O)OC(C)(C)C)CC3)cn2)cc2ncsc12)[C@H]1CNC(=O)C1` (stereo in doubt) [tert-butyl 4-(6-(7-((R)-1-((R)-5-oxopyrrolidin-3-yl)ethoxy)benzo[d]thiazol-5-yl)pyridin-3-yl)piperazine-1-carboxylate], the half-maximal inhibitory concentration (IC50) was 5.16 nM. As to `COc1ccc(-c2cc3ncn(CC(F)F)c3c(O[C@H](C)[C@H]3CNC(=O)C3)n2)cc1OC` [(R)-4-((R)-1-(3-(2,2-difluoroethyl)-6-(3,4-dimethoxyphenyl)-3H-imidazo[4,5-c]pyridin-4-yloxy)ethyl)pyrrolidin-2-one], the IC50 came to 19.5 nM. Regarding `CCn1cnc2cc(-c3ccc(OC)c(OC)c3)nc(O[C@H](C)[C@H]3CNC(=O)C3)c21` [(R)-4-((R)-1-(6-(3,4-dimethoxyphenyl)-3-ethyl-3H-imidazo[4,5-c]pyridin-4-yloxy)ethyl)pyrrolidin-2-one], the IC50 came out at 3.05 nM.

Still in this assay, the particulars now being: table 'ALL NEW COMPOUNDS IN 2014', 20 μM ATP, 1 μM biotinylated peptide, 0.015 nM Syk, 30 min at room temperature, read-out: Syk IC50.
As to `C[C@@H](Oc1nc(-c2ccc(N3CCn4cnnc4C3)cc2)cc2ncn(C3CC3)c12)[C@H]1CNC(=O)C1` [(R)-4-((R)-1-((3-cyclopropyl-6-(4-(5,6-dihydro-[1,2,4]triazolo[4,3-a]pyrazin-7(8H)-yl)phenyl)-3H-imidazo[4,5-c]pyridin-4-yl)oxy)ethyl)pyrrolidin-2-one], the IC50 was determined as 1.3 nM. As for `C[C@@H](Oc1nc(-c2cnc3c(c2)N(C)C(=O)C3(C)C)cc2ncn(C3CC3)c12)[C@H]1CNC(=O)C1` [6-(3-cyclopropyl-4-((R)-1-((R)-5-oxopyrrolidin-3-yl)ethoxy)-3H-imidazo[4,5-c]pyridin-6-yl)-1,3,3-trimethyl-1H-pyrrolo[3,2-b]pyridin-2(3H)-one], the IC50 was found to be 8.85 nM.

As to `C[C@@H](Oc1nc(-c2ccc(N3CCN(S(C)(=O)=O)CC3)c(F)c2)cc2ncn(C3CC3)c12)[C@H]1CNC(=O)C1` [(R)-4-((R)-1-((3-cyclopropyl-6-(3-fluoro-4-(4-(methylsulfonyl)piperazin-1-yl)phenyl)-3H-imidazo[4,5-c]pyridin-4-yl)oxy)ethyl)pyrrolidin-2-one], the IC50 was 2.02 nM.

Consider `C[C@@H](Oc1cc(-c2ccc3c(n2)NCCO3)cc2ncn(C3CC3)c12)[C@H]1CNC(=O)C1` [(R)-4-((R)-1-((1-cyclopropyl-5-(3,4-dihydro-2H-pyrido[3,2-b][1,4]oxazin-6-yl)-1H-benzo[d]imidazol-7-yl)oxy)ethyl)pyrrolidin-2-one], for which the IC50 turned out to be 4.76 nM. For the molecule `C[C@@H](Oc1nc(-c2ccc3c(c2)NC(=O)OC3(C)C)cc2ncn(C)c12)[C@H]1CNC(=O)C1` [4,4-dimethyl-7-(3-methyl-4-((R)-1-((R)-5-oxopyrrolidin-3-yl)ethoxy)-3H-imidazo[4,5-c]pyridin-6-yl)-1H-benzo[d][1,3]oxazin-2(4H)-one], the IC50 came out at 0.935 nM. Turning to `C[C@@H](Oc1nc(-c2ccc(N3CC4CC(C3)N4C3COC3)cc2)cc2ncn(C3CC3)c12)[C@H]1CNC(=O)C1` [(4R)-4-((1R)-1-((3-cyclopropyl-6-(4-(6-(oxetan-3-yl)-3,6-diazabicyclo[3.1.1]heptan-3-yl)phenyl)-3H-imidazo[4,5-c]pyridin-4-yl)oxy)ethyl)pyrrolidin-2-one], the concentration for half-maximal inhibition (IC50) was found to be 2.69 nM. Consider `C[C@@H](Oc1cc(-c2ccc3c(c2)NCCO3)cc2ncn(C3CC3)c12)[C@H]1CNC(=O)C1` [(R)-4-((R)-1-((1-cyclopropyl-5-(3,4-dihydro-2H-benzo[b][1,4]oxazin-6-yl)-1H-benzo[d]imidazol-7-yl)oxy)ethyl)pyrrolidin-2-one], for which the IC50 is 2.56 nM.

As to `C[C@@H](Oc1nc(-c2cnc(C(F)(F)F)s2)cc2ncn(C3CC3)c12)[C@H]1CNC(=O)C1` [(R)-4-((R)-1-((3-cyclopropyl-6-(2-(trifluoromethyl)thiazol-5-yl)-3H-imidazo[4,5-c]pyridin-4-yl)oxy)ethyl)pyrrolidin-2-one], the half-maximal inhibitory concentration (IC50) amounted to 67.7 nM. On to `C[C@@H](Oc1nc(-c2ccc3c(c2)OCCO3)cc2ncn(C3CC3)c12)[C@H]1CNC(=O)C1` [(R)-4-((R)-1-((3-cyclopropyl-6-(2,3-dihydrobenzo[b][1,4]dioxin-6-yl)-3H-imidazo[4,5-c]pyridin-4-yl)oxy)ethyl)pyrrolidin-2-one], for which the IC50 was determined as 5.52 nM. With `C[C@@H](Oc1nc(-c2ccncc2)cc2ncn(C3CC3)c12)[C@H]1CNC(=O)C1` [(R)-4-((R)-1-((3-cyclopropyl-6-(pyridin-4-yl)-3H-imidazo[4,5-c]pyridin-4-yl)oxy)ethyl)pyrrolidin-2-one], the concentration for half-maximal inhibition (IC50) stood at 11.9 nM.

Take `C[C@@H](Oc1nc(-c2cnn(C(C)(C)CO)c2)cc2ncn(C3CC3)c12)[C@H]1CNC(=O)C1`: the concentration for half-maximal inhibition (IC50) was determined as 3.43 nM. Turning to `COc1cc(-c2cc3ncn(C4CC4)c3c(O[C@H](C)[C@H]3CNC(=O)C3)n2)ccc1OCC(F)F` [(R)-4-((R)-1-((3-cyclopropyl-6-(4-(2,2-difluoroethoxy)-3-methoxyphenyl)-3H-imidazo[4,5-c]pyridin-4-yl)oxy)ethyl)pyrrolidin-2-one], the IC50 turned out to be 2.78 nM. Turning to `C[C@@H](Oc1nc(-c2cnn(C3COC3)c2)cc2ncn(C3CC3)c12)[C@H]1CNC(=O)C1`, the half-inhibitory concentration (IC50) stood at 4.65 nM. Take `C[C@@H](Oc1nc(-c2ccc(N3CCN(S(=O)(=O)C4COC4)CC3)cc2)cc2ncn(C3CC3)c12)[C@H]1CNC(=O)C1` [(R)-4-((R)-1-((3-cyclopropyl-6-(4-(4-(oxetan-3-ylsulfonyl)piperazin-1-yl)phenyl)-3H-imidazo[4,5-c]pyridin-4-yl)oxy)ethyl)pyrrolidin-2-one]: the concentration for half-maximal inhibition (IC50) was 1.31 nM. In the case of `C[C@@H](Oc1cc(-c2cnccn2)cc2ncn(C3CC3)c12)[C@H]1CNC(=O)C1` [(R)-4-((R)-1-((1-cyclopropyl-5-(pyrazin-2-yl)-1H-benzo[d]imidazol-7-yl)oxy)ethyl)pyrrolidin-2-one], the IC50 came out at 66.7 nM.
